Marks after values point to notes of the source that are not given here.
What was measured:
[1] = Pharmacokinetic (PK) tests in rats; format: in vivo; conditions: for concentration at 8 h: male, Crj:CD(SD), oral, read-out: Plasma concentration C8h; for concentration at 8 h / AUC: rat, plasma; for AUC: po, fasted male Crj:CD(SD) rats; for APTT × 2 maintaining time: 1 mg/kg orally, period when plasma concentration exceeded APTT×2; for C8h/APTT × 2: C8h divided by APTT×2
Experimental: The compound of the present invention was administered to fasted male Crj:CD(SD) rats by intravenous injection as a single intravenous dose of 0.1 mg/kg (vehicle: 20% HP-β-CD solution) and by forced oral dosage as a dose of 1 mg/kg per os (vehicle: 0.5% methylcellulose solution). Blood samples were collected from cervical vein into heparinized syringes at 0.08, 0.25, 0.5, 1, 3 or 7 hours after administration by intravenous injection or 0.08, 0.25, 0.5, 1, 2, 4, 6, 8 or 24 hours after oral administration. Plasma was obtained by centrifugation, and plasma was stored at −20° C. until measurement of plasma concentration.
In order to measure the plasma concentration of the compound of the present invention, the plasma sample was subjected to deproteinization by using acetonitrile, was filtrated by using a filter, and thereafter, was diluted with purified water, and then was analyzed by LC/MS/MS. A column for analysis (Shim-pack XR-ODSII, 2.0 mm×75 mm, 2.2 μm) and mobile phases (0.1% formic acid in water and 0.1% formic acid in acetonitrile, flow rate: 0.5 mL/min) were used. The system was used by detection of cations in the Multiple Reaction Monitoring (MRM) mode.
The area under the blood concentration versus time curve (AUC) and the bioavailability (BA) of the compound of the present invention were calculated. In addition, as indices of the maintaining time of the anticoagulation activity in the case of oral administration, AUC/APTT×2, which is obtained by dividing AUC by APTT×2, and C8h/APTT×2, which is obtained by dividing C8h (the plasma concentration at 8 hours after administration) by APTT×2, were calculated.
In addition, the period of time when the compound concentration in plasma of the compound of the present invention exceeded APTT×2 (the APTT×2 maintaining time) was calculated from the change in the compound concentration in plasma in the case when the compound of the present invention was orally administered at a dose of 1 mg/kg. The longer the APTT×2 maintaining time is, the longer the period of time is when the anticoagulation activity is maintained after oral administration.

[2] = test system: standard human plasma; test: Activated partial thromboplastin time (APTT) in standard human plasma; format: biochemical; conditions: concentration required for doubling the coagulation time vs vehicle (1% DMSO)
Experimental: Activated partial thromboplastin time (APTT) and prothrombin time (PT) were measured by using a fully automatic device for measuring blood coagulation (CA-1500, Sysmex Corporation). On APTT or PT measurement, standard human plasma for the blood coagulation tests (Siemens Healthcare Diagnostics GmbH) was mixed with a diluted solution of the compound of the present invention, and thereafter, APTT reagent (Siemens Healthcare Diagnostics GmbH) and 0.02 M of calcium chloride or PT reagent (Siemens Healthcare Diagnostics GmbH) were automatically added to the mixture in order to initiate clot formation. The anticoagulation activity (APTT×2 or PT×2) of the compound of the present invention was expressed as a concentration required for doubling the coagulation time in the vehicle (1% DMSO) group. APTT×2 or PT×2 was determined by plotting the concentration of the compound of the present invention against a twofold increase in the coagulation time.

[3] = target: T1, human blood coagulation factor XIa (Homo sapiens, UniProt P03951); test: Inhibitory activity on human blood coagulation factor XIa (chromogenic substrate S-2366); format: biochemical; conditions: chromogenic substrate S-2366, 37° C.; read-out: FXIa inhibitory activity IC50
T1 construct: human blood coagulation factor XIa (Haematologic Technologies Inc.); purchased Haematologic Technologies Inc
Experimental: Inhibitory activities of the compound of the present invention on human blood coagulation factor XIa, factor VIIa, factor IXa, factor Xa, factor XIIa, plasma kallikrein and thrombin were evaluated. A chromogenic substrate solution was added to each of enzyme solutions, the absorbance at 405 nm was measured continuously at 37° C. for 5 minutes at intervals of 15 seconds, and the decomposition rate of each of substrates (mOD/min) was calculated. The half maximal (50%) inhibitory concentration (IC50) of the compound of the present invention on each of the enzymes was calculated by linear regression by using least-squares method from the concentration of the compound of the present invention which was converted in terms of natural logarithm and the rate of enzyme inhibition calculated according to the following equation.
The rate of enzyme inhibition (%) of the compound of the present invention was calculated by using the following equation: Rate of enzyme inhibition (%)=100×{(Cont(e)−BL(e))−(Comp(e)−BL(e))/(Cont(e)−BL(e))}
Cont (e): Decomposition rate of substrate (mOD/min) when enzyme solution and substrate solution were added to physiological saline containing 5% dimethyl sulfoxide
Comp (e): Decomposition rate of substrate (mOD/min) when enzyme solution and substrate solution were added to physiological saline containing 5% dimethyl sulfoxide and the compound of the present invention
The inhibitory activity on human blood coagulation factor XIa (Haematologic Technologies Inc.) was measured by using the enzyme solution adjusted to 0.1 U/mL by a buffer solution containing 300 mM of NaCl, 10 mM of KCl, 2 mg/mL of PEG 6000 and 100 mM of HEPES-NaOH (pH 7.4) as well as S-2366 (pyroglu-Pro-Arg-pNA, CHROMOGENIX) adjusted to 1 mM by distilled water.

[4] = rats, 1 mg/kg per os, 8 hours after administration

T1 sequence (P03951 388-625 limits assumed): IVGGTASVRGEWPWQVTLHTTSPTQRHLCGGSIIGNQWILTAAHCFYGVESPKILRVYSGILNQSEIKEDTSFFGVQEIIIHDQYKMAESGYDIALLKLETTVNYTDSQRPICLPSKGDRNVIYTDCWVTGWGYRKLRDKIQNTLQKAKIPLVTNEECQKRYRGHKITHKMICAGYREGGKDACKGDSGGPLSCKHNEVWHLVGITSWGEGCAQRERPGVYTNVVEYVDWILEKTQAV
T1 sequence (P03951 19-387 partner limits assumed): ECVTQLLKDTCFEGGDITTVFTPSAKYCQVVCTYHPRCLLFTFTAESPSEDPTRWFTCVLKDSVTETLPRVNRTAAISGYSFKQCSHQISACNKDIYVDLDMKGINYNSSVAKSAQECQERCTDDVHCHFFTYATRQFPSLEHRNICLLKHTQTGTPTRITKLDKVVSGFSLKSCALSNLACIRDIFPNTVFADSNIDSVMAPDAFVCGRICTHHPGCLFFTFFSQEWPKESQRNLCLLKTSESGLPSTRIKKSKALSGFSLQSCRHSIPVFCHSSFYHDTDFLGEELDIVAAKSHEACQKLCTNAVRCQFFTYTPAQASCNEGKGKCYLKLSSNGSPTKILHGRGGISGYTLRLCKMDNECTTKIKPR

SMILES | concentration at 8 h [1, 4] [nM] | AUC ([1]; 1 mg/kg per os) [µM·h] | APTT × 2 maintaining time ([1]; rats) | C8h/APTT × 2 ([1]; rats, 1 mg/kg per os) | IC50 [3] [nM] | Plasma concentration C8h [1, 4] | APTT × [2] [µM]
Nc1ccc(-c2cnc([C@@H]3CCc4cc(-c5cc(Cl)ccc5-n5cnnn5)cc(=O)n43)[nH]2)c(F)n1 [Comparative Example 1 (1), (3S)-3-[5-(6-amino-2-fluoro-3-pyridinyl)-1H-imidazol-2-yl]-7-[5-chloro-2-(1H-tetrazol-1-yl)phenyl]-2,3-dihydro-5(1H)-indolizinone] | 170 | 4.7 | 0* h | 0.15 | – | – | 1.2
Nc1ccc(-c2[nH]c([C@@H]3CCc4cc(-c5cc(Cl)ccc5-n5cnnn5)cc(=O)n43)nc2Cl)c(F)n1 [Comparative Example 1 (2), (3S)-3-[5-(6-amino-2-fluoro-3-pyridinyl)-4-chloro-1H-imidazol-2-yl]-7-[5-chloro-2-(1H-tetrazol-1-yl)phenyl]-2,3-dihydro-5(1H)-indolizinone] | 26 | 0.69 | 0* h | 0.014 | 4.8 | – | 1.8
Nc1ccc(-c2ncc([C@@H]3CCc4cc(-c5cc(Cl)ccc5-n5cnnn5)cc(=O)n43)[nH]2)c(F)n1 [Comparative Example 2 (1), (3S)-3-[2-(6-amino-2-fluoro-3-pyridinyl)-1H-imidazol-5-yl]-7-[5-chloro-2-(1H-tetrazol-1-yl)phenyl]-2,3-dihydro-5(1H)-indolizinone] | – | 0.056 | 0* h | – | 19 | BLQ* | 4.0
Nc1ccc(-c2nc(Cl)c([C@@H]3CCc4cc(-c5cc(Cl)ccc5-n5cnnn5)cc(=O)n43)[nH]2)c(F)n1 [Comparative Example 2 (3), (3S)-3-[2-(6-amino-2-fluoro-3-pyridinyl)-4-chloro-1H-imidazol-5-yl]-7-[5-chloro-2-(1H-tetrazol-1-yl)phenyl]-2,3-dihydro-5(1H)-indolizinone] | 1100 | 23 | <2 h | 0.52 | 4.4 | – | 2.1
Nc1ccc(-c2[nH]c([C@@H]3CCc4nc(-c5cc(Cl)ccc5-n5cnnn5)cc(=O)n43)nc2Cl)c(F)n1 [Comparative Example 3 (2), (6S)-6-[5-(6-amino-2-fluoro-3-pyridinyl)-4-chloro-1H-imidazol-2-yl]-2-[5-chloro-2-(1H-tetrazol-1-yl)phenyl]-7,8-dihydropyrrolo[1,2-a]pyrimidin-4(6H)-one] | 27 | 1.4 | 0* h | 0.0073 | 11 | – | 3.7

Further molecules by falling IC50 [3], results first:

concentration at 8 h [1, 4] [nM] | AUC ([1]; 1 mg/kg per os) [µM·h] | APTT × 2 maintaining time ([1]; rats) | C8h/APTT × 2 ([1]; rats, 1 mg/kg per os) | IC50 [3] [nM] | Plasma concentration C8h [1, 4] | SMILES | APTT × [2] [µM]
350 | 8.4 | 0* h | 0.18 | 2.7 | – | N#Cc1cn(-c2ccc(Cl)cc2-c2cc3n(c(=O)c2)[C@H](c2nc(Cl)c(-c4ccc(N)nc4)[nH]2)CC3)nn1 [Comparative Example 4, 1-(2-{(3S)-3-[5-(6-amino-3-pyridinyl)-4-chloro-1H-imidazol-2-yl]-5-oxo-1,2,3,5-tetrahydro-7-indolizinyl}-4-chlorophenyl)-1H-1,2,3-triazole-4-carbonitrile] | 2.0
1600 | 28 | >8 h | 3.4 | 1.9 | – | Nc1ccc(-c2nc(F)c([C@@H]3CCc4nc(-c5cc(Cl)ccc5-n5cnnn5)cc(=O)n43)[nH]2)c(F)n1 [Example 3 (4), (6S)-6-[2-(6-Amino-2-Fluoro-3-Pyridinyl)-4-Fluoro-1H-Imidazol-5-Yl]-2-[5-Chloro-2-(1H-Tetrazol-1-Yl)Phenyl]-7,8-Dihydropyrrolo[1,2-a]Pyrimidin-4(6H)-One] | 0.47
880 | 33 | >8 h | 1.1 | 1.7 | – | Nc1ccc(-c2[nH]c([C@@H]3CCc4cc(-c5cc(Cl)ccc5-n5cnnn5)cc(=O)n43)nc2F)c(F)n1 [Example 1 (6), (3S)-3-[5-(6-Amino-2-Fluoro-3-Pyridinyl)-4-Fluoro-1H-Imidazol-2-Yl]-7-[5-Chloro-2-(1H-Tetrazol-1-Yl)Phenyl]-2,3-Dihydro-5(1H)-Indolizinone] | 0.80
1000 | 15 | >8 h | 2.1 | 1.7 | – | Nc1ccc(-c2nc(F)c([C@@H]3CCc4cc(-c5cc(Cl)ccc5-n5cnnn5)cc(=O)n43)[nH]2)c(F)n1 [Example 2 (10), (3S)-3-[2-(6-Amino-2-Fluoro-3-Pyridinyl)-4-Fluoro-1H-Imidazol-5-Yl]-7-[5-Chloro-2-(1H-Tetrazol-1-Yl)Phenyl]-2,3-Dihydro-5(1H)-Indolizinone] | 0.49
73 | 1.6 | <2 h | 0.34 | 1.6 | – | Nc1ccc(-c2nc(F)c([C@@H]3CCc4cc(-c5cc(Cl)ccc5-n5cnnn5)cc(=O)n43)[nH]2)cn1 [Comparative Example 2 (5), (3S)-3-[2-(6-Amino-3-Pyridinyl)-4-Fluoro-1H-Imidazol-5-Yl]-7-[5-Chloro-2-(1H-Tetrazol-1-Yl)Phenyl]-2,3-Dihydro-5(1H)-Indolizinone] | 0.21
180 | 4.2 | <2 h | 0.29 | 1.6 | – | COC(=O)Nc1ccc(-c2nc(Cl)c([C@@H]3CCc4nc(-c5cc(Cl)ccc5-n5cnnn5)cc(=O)n43)[nH]2)cc1 [Comparative Example 3 (1), methyl[4-(4-chloro-5-{(6S)-2-[5-chloro-2-(1H-tetrazol-1-yl)phenyl]-4-oxo-4,6,7,8-tetrahydropyrrolo[1,2-a]pyrimidin-6-yl}-1H-imidazol-2-yl)phenyl]carbamate] | 0.64
81 | 1.7 | <1 h | 0.15 | 1.4 | – | Nc1ccc(-c2[nH]c([C@@H]3CCc4cc(-c5cc(Cl)ccc5-n5cnnn5)cc(=O)n43)nc2F)cn1 [Comparative Example 1 (3), (3S)-3-[5-(6-amino-3-pyridinyl)-4-fluoro-1H-imidazol-2-yl]-7-[5-chloro-2-(1H-tetrazol-1-yl)phenyl]-2,3-dihydro-5(1H)-indolizinone] | 0.55

Source: patent publication US10815233B2, “Dihydroindolizinone derivative” (ONO PHARMACEUTICAL CO., LTD., priority 2014, dated 2020)
